From ChEMBL document CHEMBL4420076, “Amylin and calcitonin receptor agonist” (2017)
Numbered stars: 1 amine (or outer) side, 2 acyl side, 3 side chain; on linkers, the order of the positions; unused ones are H or OH. Side chains are listed from the residue outwards. Peptide text beside a SMILES is read from it. * marks the point of attachment. C20 diacid = O=C(O)CCCCCCCCCCCCCCCCCCC(=O)*; C18 diacid = O=C(O)CCCCCCCCCCCCCCCCC(=O)*; γGlu = O=C(O)[C@H](CCC(=O)[*:2])N[*:1]

Key:
Rattus norvegicus [1] = assay: Reduction in food intake in Sprague-Dawley rat at 3 nmol/kg measured 0 to 24 hrs post dose relative to control; type: functional; parameters: scale not given: the % may be the effect or the level left
Rattus norvegicus [2] = assay: Reduction in food intake in Sprague-Dawley rat at 3 nmol/kg measured 24 to 48 hrs post dose relative to control; type: functional; parameters: scale not given: the % may be the effect or the level left
[3] = biological target: T1, Amylin receptor AMY3; CALCR/RAMP3 (Homo sapiens, UniProt O60896+P30988); assay: Agonist activity at human amylin receptor expressed in BHK570 cells co-expressing RAMP3 assessed as increase in intracellular cAMP concentration incubated for 3 hrs in absence of albumin by CRE luciferase reporter gene assay; type: functional, cell-based
T1 sequence (P30988 whole entry): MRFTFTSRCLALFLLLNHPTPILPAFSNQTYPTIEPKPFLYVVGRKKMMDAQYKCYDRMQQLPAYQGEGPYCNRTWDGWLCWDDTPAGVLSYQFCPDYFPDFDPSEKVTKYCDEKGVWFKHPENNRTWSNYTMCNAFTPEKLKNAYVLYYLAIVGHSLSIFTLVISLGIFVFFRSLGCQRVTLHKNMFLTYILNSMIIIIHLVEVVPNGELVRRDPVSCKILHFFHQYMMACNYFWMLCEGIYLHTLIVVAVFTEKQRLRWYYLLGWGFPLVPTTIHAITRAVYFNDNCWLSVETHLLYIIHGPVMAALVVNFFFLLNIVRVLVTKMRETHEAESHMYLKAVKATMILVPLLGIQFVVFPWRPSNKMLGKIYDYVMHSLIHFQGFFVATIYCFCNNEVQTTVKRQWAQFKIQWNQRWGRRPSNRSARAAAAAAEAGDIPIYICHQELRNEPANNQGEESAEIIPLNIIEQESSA
T1 sequence (O60896 whole entry): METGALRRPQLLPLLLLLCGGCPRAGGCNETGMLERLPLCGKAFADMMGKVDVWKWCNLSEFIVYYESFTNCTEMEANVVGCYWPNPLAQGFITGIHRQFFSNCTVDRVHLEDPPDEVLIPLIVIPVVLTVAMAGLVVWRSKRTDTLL

Calcitonin receptor [4] = biological target: T2, Calcitonin receptor (Homo sapiens, UniProt P30988); assay: Agonist activity at human calcitonin receptor expressed in BHK570 cells assessed as increase in intracellular cAMP concentration incubated for 3 hrs in absence of albumin by CRE luciferase reporter gene assay; type: functional, cell-based
T2 sequence (P30988 whole entry): T1 sequence (P30988 whole entry)

Calcitonin receptor [5] = biological target: T2, Calcitonin receptor; assay: Agonist activity at human calcitonin receptor expressed in BHK570 cells assessed as increase in intracellular cAMP concentration incubated for 3 hrs in presence of 10% FBS by CRE luciferase reporter gene assay; type: functional, cell-based
[6] = Stability in pH 7.5 buffer assessed as lag time for fibril formation at 1 uM by Thioflavin T based fluorescence assay; type: physicochemical; conditions: pH 7.5, 1 µM
[7] = Stability in pH 7.5 buffer assessed as compound recovery at 1 uM by Thioflavin T based fluorescence assay; type: physicochemical; conditions: read-out: Drug recovery
[8] = Solubility in 100 mM glycylglycine buffer at pH 3.0 incubated for 18 hrs by UPLC analysis; type: physicochemical
[9] = Solubility in 100 mM glycylglycine buffer at pH 4.0 incubated for 18 hrs by UPLC analysis; type: physicochemical
[10] = Solubility in 100 mM glycylglycine buffer at pH 5.0 incubated for 18 hrs by UPLC analysis; type: physicochemical
[11] = Solubility in 100 mM bistrispropane buffer at pH 7.5 incubated for 18 hrs by UPLC analysis; type: physicochemical
[12] = Solubility in 100 mM bistrispropane buffer at pH 8.0 incubated for 18 hrs by UPLC analysis; type: physicochemical
[13] = biological target: T1, Amylin receptor AMY3; CALCR/RAMP3; assay: Displacement of [125I]-labeled rat amylin from human amylin receptor expressed in BHK tkts13 whole cells co-expressing RAMP3 incubated for 60 mins by scintillation proximity assay; type: cell-based
Calcitonin receptor [14] = biological target: T2, Calcitonin receptor; assay: Displacement of [125I]-labeled human calcitonin from human calcitonin receptor expressed in BHK tkts13 whole cells incubated for 60 mins by scintillation proximity assay; type: cell-based
[15] = Solubility in 100 mM bistrispropane buffer at pH 6.0 incubated for 18 hrs by UPLC analysis; type: physicochemical
[16] = Solubility in 100 mM bistrispropane buffer at pH 6.5 incubated for 18 hrs by UPLC analysis; type: physicochemical
[17] = Solubility in 100 mM bistrispropane buffer at pH 7.0 incubated for 18 hrs by UPLC analysis; type: physicochemical

Compound	Activity (Rattus norvegicus [1])	Activity (Rattus norvegicus [2])	EC50 [3]	EC50 (Calcitonin receptor [4])	EC50 (Calcitonin receptor [5])	Time [6]	remaining at 1 µM [7]	solubility at 18 h [8]	solubility at 18 h [9]	solubility at 18 h [10]	solubility at 18 h [11]	solubility at 18 h [12]	IC50 [13]	IC50 (Calcitonin receptor [14])	solubility at 18 h [15]	solubility at 18 h [16]	solubility at 18 h [17]
CC(C)C[C@H](NC(=O)CNC(=O)[C@H](CO)NC(=O)[C@H](C)N)C(=O)N[C@@H](CO)C(=O)N[C@H](C(=O)N[C@@H](C)C(=O)N[C@@H](C)C(=O)N[C@@H](CC(C)C)C(=O)NCC(=O)N[C@@H](CCCNC(=N)N)C(=O)N[C@@H](CC(C)C)C(=O)N[C@@H](CO)C(=O)N[C@@H](CCC(N)=O)C(=O)N[C@@H](CCC(=O)O)C(=O)N[C@@H](CC(C)C)C(=O)N[C@@H](Cc1cnc[nH]1)C(=O)N[C@@H](CCC(=O)O)C(=O)N[C@@H](CC(C)C)C(=O)N[C@@H](CCC(N)=O)C(=O)N[C@H](C(=O)N[C@@H](Cc1ccc(O)cc1)C(=O)N1CCC[C@H]1C(=O)N[C@@H](CCCNC(=N)N)C(=O)N[C@H](C(=O)N[C@@H](CCC(=O)O)C(=O)N[C@H](C(=O)NCC(=O)N[C@@H](CO)C(=O)N[C@@H](CCCCNC(=O)CC[C@H](NC(=O)CCCCCCCCCCCCCCCCCCC(=O)O)C(=O)O)C(=O)N[C@H](C(=O)N[C@@H](Cc1ccc(O)cc1)C(N)=O)[C@@H](C)O)[C@@H](C)O)[C@@H](C)O)[C@@H](C)O)[C@@H](C)O (H-ASGLSTAALGRLSQELHELQTYPRTETGSK([γGlu-C20 diacid])TY-NH2)	4%	-5%	0.068 nM	0.036 nM	0.113 nM	0.3 h	0%	≥ 200 µM	≥ 200 µM	≥ 200 µM	≥ 200 µM	≥ 200 µM	5.45 nM	1.27 nM	–	–	–
CC(C)C[C@H](NC(=O)[C@H](CCC(=O)O)NC(=O)[C@H](Cc1cnc[nH]1)NC(=O)[C@H](CC(C)C)NC(=O)[C@H](CCC(=O)O)NC(=O)[C@H](C)NC(=O)[C@H](CO)NC(=O)[C@H](CC(C)C)NC(=O)[C@H](CCCNC(=N)N)NC(=O)CNC(=O)[C@H](CC(C)C)NC(=O)[C@@H](NC(=O)[C@H](C)NC(=O)[C@@H](NC(=O)[C@H](CO)NC(=O)[C@H](CC(C)C)NC(=O)[C@H](CCC(=O)O)NC(=O)[C@@H]1CCCN1C(=O)[C@H](C)NC(=O)[C@H](CCC(=O)O)NC(=O)CCCCCCCCCCCCCCCCC(=O)O)[C@@H](C)O)C(C)C)C(=O)N[C@@H](C)C(=O)N[C@H](C(=O)N[C@@H](CC(C)C)C(=O)N1CCC[C@H]1C(=O)N[C@@H](CCCNC(=N)N)C(=O)N[C@H](C(=O)N[C@@H](CCC(=O)O)C(=O)N[C@H](C(=O)NCC(=O)N1CCC[C@H]1C(=O)N[C@@H](CCC(=O)O)C(=O)N[C@@H](CO)C(=O)N1CCC[C@H]1C(N)=O)[C@@H](C)O)[C@@H](C)O)[C@@H](C)O ({C18 diacid}-EAPELSTAVLGRLSAELHELATLPRTETGPESP-NH2)	52%	0%	0.01 nM	0.007 nM	–	–	–	≥ 200 µM	≥ 200 µM	≥ 200 µM	≥ 200 µM	≥ 200 µM	0.352 nM	0.309 nM	≥ 200 µM	≥ 200 µM	≥ 200 µM
